Measurements taken from PubChem BioAssay AID256 (DTP/NCI, 2004).
Where “and” joins values, the source holds several entries; their conditions need not be identical. Equal values may be shown once. Inconclusive results and toxic doses are left out. The calls were made as follows: active = survival T/C of 150% or more; inactive = T/C below 125% in these data.

Test system: CD2F1 mice, L1210 leukemia ip, survival T/C
Experiment: NCI In Vivo Anticancer Drug Screen. Data for tumor model L1210 Leukemia (intraperitoneal) in CD2F1 (CDF1) mice
Conditions: higher = longer survival
Method in brief: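 Vehicle-treated tumor-bearing mice served as controls (C) for compound-treated mice (T). Reported figure is T divided by C.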

[1] = endpoint: mean survival time, dose: 100.0 mg/kg/injection, schedule: Q01DX001 (ip), vehicle: saline with Tween-80
[2] = endpoint: mean survival time, dose: 200.0 mg/kg/injection, schedule: Q01DX001 (ip), vehicle: saline with Tween-80
[3] = endpoint: mean survival time, dose: 400.0 mg/kg/injection, schedule: Q01DX001 (ip), vehicle: saline with Tween-80
[4] = endpoint: mean survival time, dose: 50.0 mg/kg/injection, schedule: Q01DX009 (ip), vehicle: Klucel (hydroxypropylcellulose) (HPC)
[5] = endpoint: mean survival time, dose: 100.0 mg/kg/injection, schedule: Q01DX009 (ip), vehicle: Klucel (hydroxypropylcellulose) (HPC)
[6] = endpoint: mean survival time, dose: 100.0 mg/kg/injection, schedule: Q04DX003 (ip), vehicle: saline with Tween-80
[7] = endpoint: mean survival time, dose: 200.0 mg/kg/injection, schedule: Q04DX003 (ip), vehicle: saline with Tween-80
[8] = endpoint: mean survival time, dose: 400.0 mg/kg/injection, schedule: Q04DX003 (ip), vehicle: saline with Tween-80

Measured: T/C

CS(=O)CN(c1c(Cl)c(Cl)c(NS(=O)(=O)c2ccccc2)c(Cl)c1Cl)S(=O)(=O)c1ccccc1 (stereo unspecified)
inactive: [1] 96 % of control | [2] 92 % of control | [3] 92 % of control

Nc1nc(N)c(NC=O)c(N)n1
inactive: endpoint: mean survival time, dose: 12.5 mg/kg/injection, schedule: Q01DX009 (ip), vehicle: water 101 % of control | endpoint: mean survival time, dose: 25.0 mg/kg/injection, schedule: Q01DX009 (ip), vehicle: water 101 % of control | endpoint: mean survival time, dose: 50.0 mg/kg/injection, schedule: Q01DX009 (ip), vehicle: water 106 % of control | endpoint: mean survival time, dose: 100.0 mg/kg/injection, schedule: Q01DX009 (ip), vehicle: water 103 % of control | endpoint: mean survival time, dose: 200.0 mg/kg/injection, schedule: Q01DX009 (ip), vehicle: water 103 % of control

O=C(COc1ccc(Cl)cc1Cl)Nc1cccc(Cl)c1
inactive: endpoint: mean survival time, dose: 100.0 mg/kg/injection, schedule: Q04DX002 (ip), vehicle: saline with Tween-80 101 % of control | endpoint: mean survival time, dose: 200.0 mg/kg/injection, schedule: Q04DX002 (ip), vehicle: saline with Tween-80 101 % of control | endpoint: mean survival time, dose: 400.0 mg/kg/injection, schedule: Q04DX002 (ip), vehicle: saline with Tween-80 93 % of control

CN1CCCN(C)C1c1ccccc1
inactive: endpoint: mean survival time, dose: 25.0 mg/kg/injection, schedule: Q01DX009 (ip), vehicle: saline 97 % of control | endpoint: mean survival time, dose: 50.0 mg/kg/injection, schedule: Q01DX009 (ip), vehicle: saline 94 % of control | endpoint: mean survival time, dose: 100.0 mg/kg/injection, schedule: Q01DX009 (ip), vehicle: saline 89 % of control | endpoint: mean survival time, dose: 100.0 mg/kg/injection, schedule: Q04DX003 (ip), vehicle: saline 104 % of control

CN(C)c1ccc(-c2cc(C(=O)O)c3cc(I)ccc3n2)c(Cl)c1
inactive: endpoint: mean survival time, dose: 75.0 mg/kg/injection, schedule: Q01DX009 (ip), vehicle: saline 100 % of control | endpoint: mean survival time, dose: 75.0 mg/kg/injection, schedule: Q04DX003 (ip), vehicle: saline 92 % of control | endpoint: mean survival time, dose: 150.0 mg/kg/injection, schedule: Q01DX009 (ip), vehicle: saline 94 % of control | endpoint: mean survival time, dose: 150.0 mg/kg/injection, schedule: Q04DX003 (ip), vehicle: saline 93 % of control | endpoint: mean survival time, dose: 300.0 mg/kg/injection, schedule: Q01DX009 (ip), vehicle: saline 98 % of control | endpoint: mean survival time, dose: 300.0 mg/kg/injection, schedule: Q04DX003 (ip), vehicle: saline 110 % of control

CSc1nnnn1-c1ccccc1
inactive: [4] 111 % of control | [5] 104 % of control

ClC(c1ccccc1)C(Cl)c1ccccc1 (stereo unspecified)
inactive: endpoint: mean survival time, dose: 3.13 mg/kg/injection, schedule: Q01DX009 (ip), vehicle: saline with Tween-80 102 % of control | endpoint: mean survival time, dose: 6.25 mg/kg/injection, schedule: Q01DX009 (ip), vehicle: saline with Tween-80 102 % of control | endpoint: mean survival time, dose: 12.5 mg/kg/injection, schedule: Q01DX009 (ip), vehicle: saline with Tween-80 91 % of control and 95 % of control

O=C(C1CO1)C(Cl)(Cl)Cl (stereo unspecified)
inactive: endpoint: median survival time, dose: 12.0 mg/kg/injection, schedule: Q01DX009 (ip), vehicle: saline 111 % of control | endpoint: median survival time, dose: 25.0 mg/kg/injection, schedule: Q01DX009 (ip), vehicle: saline 108 % of control | endpoint: median survival time, dose: 50.0 mg/kg/injection, schedule: Q01DX009 (ip), vehicle: saline 117 % of control

CN(C)c1ccc(N2C(N)=NC(N)=NC2(C)C)cc1
inactive: endpoint: mean survival time, dose: 25.0 mg/kg/injection, schedule: Q01DX001 (ip), vehicle: saline 101 % of control | endpoint: mean survival time, dose: 50.0 mg/kg/injection, schedule: Q01DX001 (ip), vehicle: saline 101 % of control | endpoint: mean survival time, dose: 100.0 mg/kg/injection, schedule: Q01DX001 (ip), vehicle: saline 98 % of control

CCC(C)(S)C(NC(C)=O)C(=O)O (stereo unspecified)
inactive: [6] 98 % of control | [7] 101 % of control | [8] 104 % of control

CC(=O)OCC(C)CCC(C)C(C)C1C(C)CC2C3CC=C4CC(OC(C)=O)CCC4(C)C3CCC21C (stereo unspecified)
inactive: endpoint: mean survival time, dose: 12.5 mg/kg/injection, schedule: Q01DX009 (ip), vehicle: Klucel (hydroxypropylcellulose) (HPC) 104 % of control | endpoint: mean survival time, dose: 25.0 mg/kg/injection, schedule: Q01DX009 (ip), vehicle: Klucel (hydroxypropylcellulose) (HPC) 101 % of control | [4] 101 % of control

COc1ccc(C#N)c([N+](=O)[O-])c1
inactive: [6] 95 % of control | [7] 114 % of control

Cc1ccc(CC(F)(F)F)cc1
inactive: [6] 100 % of control | [7] 100 % of control | [8] 108 % of control

COC(=O)CCN(c1ccccc1)S(=O)(=O)c1ccc(C)cc1
inactive: [5] 98 % of control | endpoint: mean survival time, dose: 200.0 mg/kg/injection, schedule: Q01DX009 (ip), vehicle: Klucel (hydroxypropylcellulose) (HPC) 100 % of control | endpoint: mean survival time, dose: 400.0 mg/kg/injection, schedule: Q01DX009 (ip), vehicle: Klucel (hydroxypropylcellulose) (HPC) 98 % of control

Nc1nc(N)c2c(n1)NCN(CCc1ccc(Cl)cc1Cl)C2
inactive: endpoint: mean survival time, dose: 0.75 mg/kg/injection, schedule: Q01DX009 (ip), vehicle: distilled water + Tween-80 100 % of control | endpoint: mean survival time, dose: 1.5 mg/kg/injection, schedule: Q01DX009 (ip), vehicle: distilled water + Tween-80 102 % of control | endpoint: mean survival time, dose: 3.0 mg/kg/injection, schedule: Q01DX009 (ip), vehicle: distilled water + Tween-80 100 % of control | endpoint: mean survival time, dose: 6.0 mg/kg/injection, schedule: Q01DX009 (ip), vehicle: distilled water + Tween-80 102 % of control | endpoint: mean survival time, dose: 12.0 mg/kg/injection, schedule: Q01DX009 (ip), vehicle: distilled water + Tween-80 96 % of control | endpoint: mean survival time, dose: 24.0 mg/kg/injection, schedule: Q01DX009 (ip), vehicle: distilled water + Tween-80 98 % of control | endpoint: mean survival time, dose: 37.5 mg/kg/injection, schedule: Q01DX009 (ip), vehicle: distilled water + Tween-80 96 % of control | endpoint: mean survival time, dose: 75.0 mg/kg/injection, schedule: Q01DX009 (ip), vehicle: distilled water + Tween-80 94 % of control

CSc1ncc(C=O)c(N)n1
inactive: [1] 96 % of control | [2] 97 % of control | [3] 95 % of control

CCOc1nc(N)nc2c1ncn2C1CC(O)C(CO)O1 (stereo unspecified)
inactive: endpoint: mean survival time, dose: 12.5 mg/kg/injection, schedule: Q01DX005 (ip), vehicle: water 95 % of control | endpoint: mean survival time, dose: 25.0 mg/kg/injection, schedule: Q01DX005 (ip), vehicle: water 98 % of control | endpoint: mean survival time, dose: 50.0 mg/kg/injection, schedule: Q01DX005 (ip), vehicle: water 102 % of control | endpoint: mean survival time, dose: 100.0 mg/kg/injection, schedule: Q01DX005 (ip), vehicle: water 109 % of control | endpoint: mean survival time, dose: 200.0 mg/kg/injection, schedule: Q01DX005 (ip), vehicle: water 98 % of control

N=C(N)c1ccc(NC(=O)c2ccc(C(=O)Nc3ccc(C(=N)N)cc3)c(N)c2)cc1
inactive: endpoint: median survival time, dose: 12.5 mg/kg/injection, schedule: Q01DX009 (ip), vehicle: saline with Tween-80 101 % of control and 110 % of control | endpoint: median survival time, dose: 25.0 mg/kg/injection, schedule: Q01DX009 (ip), vehicle: saline with Tween-80 102 % of control and 112 % of control | endpoint: median survival time, dose: 50.0 mg/kg/injection, schedule: Q01DX009 (ip), vehicle: saline with Tween-80 119 % of control and 103 % of control | endpoint: median survival time, dose: 100.0 mg/kg/injection, schedule: Q01DX009 (ip), vehicle: saline with Tween-80 121 % of control and 96 % of control and 112 % of control | endpoint: median survival time, dose: 200.0 mg/kg/injection, schedule: Q01DX009 (ip), vehicle: saline with Tween-80 107 % of control

CC1NC(C(=O)O)Cc2cc(O)c(O)cc21 (stereo unspecified)
inactive: [6] 102 % of control | [7] 98 % of control | [8] 100 % of control

N/N=C(\NN)c1ccccc1
inactive: [6] 92 % of control | [7] 87 % of control | [8] 92 % of control

CCCCCC(O)C1CCCCC1C (stereo unspecified)
inactive: [6] 105 % of control | [7] 102 % of control | [8] 90 % of control
